Results taken from ChEMBL document CHEMBL1141887, “Design and synthesis of (E)-1,1,2-triarylethenes: novel inhibitors of the cyclooxygenase-2 (COX-2) isozyme” (Bioorg Med Chem Lett, 2005).

Biological target: T1, Prostaglandin G/H synthase 1 (Ovis aries, UniProt P05979)
T1 sequence (P05979 whole entry): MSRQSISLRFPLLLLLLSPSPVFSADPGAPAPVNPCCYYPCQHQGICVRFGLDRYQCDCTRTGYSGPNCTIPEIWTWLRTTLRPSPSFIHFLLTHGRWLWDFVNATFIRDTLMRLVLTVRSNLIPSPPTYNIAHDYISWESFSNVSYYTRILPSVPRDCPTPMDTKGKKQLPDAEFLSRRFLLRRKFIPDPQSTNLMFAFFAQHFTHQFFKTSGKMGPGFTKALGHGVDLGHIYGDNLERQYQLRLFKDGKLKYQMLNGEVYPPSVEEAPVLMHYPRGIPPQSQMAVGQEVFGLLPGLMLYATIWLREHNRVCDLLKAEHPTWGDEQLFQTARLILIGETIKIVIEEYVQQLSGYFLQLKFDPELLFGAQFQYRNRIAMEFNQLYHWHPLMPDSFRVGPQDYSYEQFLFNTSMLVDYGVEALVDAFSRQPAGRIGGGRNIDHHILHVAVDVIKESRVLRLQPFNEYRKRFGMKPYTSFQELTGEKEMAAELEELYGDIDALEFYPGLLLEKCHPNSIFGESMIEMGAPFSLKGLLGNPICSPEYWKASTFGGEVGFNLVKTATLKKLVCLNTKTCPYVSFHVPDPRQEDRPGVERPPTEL
Experiment: In vitro inhibitory concentration against ovine Cyclooxygenase-1

| SMILES | IC50 |
| --- | --- |
| CS(=O)(=O)c1ccc(/C(=C/c2ccc(F)cc2)c2ccccc2)cc1 | > 100 µM |
| CS(=O)(=O)c1ccc(/C(=C/c2ccc(F)c(F)c2)c2ccccc2)cc1 | > 100 µM |
| Cc1ccc(/C=C(\c2ccccc2)c2ccc(S(C)(=O)=O)cc2)cc1 | > 100 µM |
| CS(=O)(=O)c1ccc(C=C(c2ccc(F)cc2)c2ccc(F)cc2)cc1 | > 100 µM |

More lines, now with the values ahead:

| IC50 | SMILES |
| --- | --- |
| > 100 µM | Cc1ccc(C(=Cc2ccc(S(C)(=O)=O)cc2)c2ccc(C)cc2)cc1 |
| > 100 µM | CS(=O)(=O)c1ccc(/C(=C/c2ccc(Cl)cc2)c2ccccc2)cc1 |
| 0.14 µM | CS(=O)(=O)c1ccc(/C(=C/c2ccccc2)c2ccccc2)cc1 |
| > 100 µM | CS(=O)(=O)c1ccc(C=C(c2ccc(Cl)cc2)c2ccc(Cl)cc2)cc1 |
